# In ChEMBL document CHEMBL6083247, “Discovery of sulfone containing metallo-β-lactamase inhibitors with reduced bacterial cell efflux and histamine release issues” (Bioorg Med Chem Lett, 2024):
# What was measured:
# [1] = tested on: Klebsiella pneumoniae; experiment: Antibacterial activity against VIM-1 expressing Klebsiella pneumoniae IHMA599644 assessed as inhibition of bacterial growth in presence of IMI by absorbance based assay; type: functional
# [2] = Inhibition of Metallo-beta-lactamase VIM-1 (unknown origin); design: species or system Bacteria
# [3] = Inhibition of Metallo-beta-lactamase VIM-2 (unknown origin); design: species or system Bacteria
# [4] = Inhibition of Metallo-beta-lactamase IMP-1 (unknown origin); design: species or system Bacteria
# [5] = tested on: Pseudomonas aeruginosa; experiment: Antibacterial activity against wildtype isogenic efflux/IMP-1 expressing Pseudomonas aeruginosa MB9798 assessed as inhibition of bacterial growth in presence of IMI by absorbance based assay; type: functional
# [6] = Efflux ratio of MITC95 for antibacterial activity against wildtype isogenic efflux/IMP-1 expressing Pseudomonas aeruginosa MB9798 assessed as inhibition of bacterial growth in presence of IMI to MITC95 for antibacterial activity against mutant isogenic efflux/IMP-1 expressing Pseudomonas aeruginosa MB9799 assessed as inhibition of bacterial growth in presence of IMI; type: functional
# [7] = tested on: Pseudomonas aeruginosa; experiment: Antibacterial activity against mutant isogenic efflux/IMP-1 expressing Pseudomonas aeruginosa MB9799 assessed as inhibition of bacterial growth in presence of IMI by absorbance based assay; type: functional
# [8] = tested on: Serratia marcescens; experiment: Antibacterial activity against IMP-1 expressing Serratia marcescens CL5741 assessed as inhibition of bacterial growth in presence of IMI by absorbance based assay; type: functional
# [9] = tested on: Escherichia coli; experiment: Antibacterial activity against NDM-1 expressing Escherichia coli CLB30016 assessed as inhibition of bacterial growth in presence of IMI by absorbance based assay; type: functional
# [10] = target: Metallo-beta-lactamase type 2 (Bacteria, UniProt C7C422); experiment: Inhibition of Metallo-beta-lactamase NDM-1 (unknown origin)
# Metallo-beta-lactamase type 2, sequence (C7C422 whole entry): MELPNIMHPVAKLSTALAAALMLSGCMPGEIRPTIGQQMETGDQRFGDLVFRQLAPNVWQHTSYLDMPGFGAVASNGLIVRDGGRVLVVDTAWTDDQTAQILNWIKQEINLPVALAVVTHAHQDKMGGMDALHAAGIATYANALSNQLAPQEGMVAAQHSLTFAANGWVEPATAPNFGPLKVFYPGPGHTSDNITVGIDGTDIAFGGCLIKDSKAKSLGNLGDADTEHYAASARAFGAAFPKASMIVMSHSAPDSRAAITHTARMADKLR
# [11] = Toxicity in rat mast cells assessed as degranulation by measuring histamine release at >=33 microM; type: cell-based; settings: mast cell
# [12] = Toxicity in cardiovascular rat model assessed as increase in histamine release in plasma at 5 mg/kg, iv measured after >8 mins; type: organism-based; settings: in vivo
# [13] = Cmax in rat at 5 mg/kg, iv; type: ADME, organism-based; settings: in vivo
# [14] = Toxicity in rat assessed as emesis at 1 mg/kg, iv; type: organism-based; settings: in vivo
# [15] = Toxicity in rat mast cells assessed as degranulation by measuring histamine release at >=300 microM; type: cell-based; settings: mast cell
# [16] = Toxicity in dog assessed as watery eyes at 1 mg/kg; type: organism-based, Canis lupus familiaris; settings: in vivo
# [17] = Toxicity in rat assessed as watery eyes at 1 mg/kg, iv; type: organism-based; settings: in vivo
# [18] = Toxicity in dog assessed as anaphylaxis at 1 mg/kg; type: organism-based, Canis lupus familiaris; settings: in vivo
# [19] = Toxicity in cardiovascular rat model assessed as increase in histamine release in plasma at 30 mg/kg, iv; type: organism-based; settings: in vivo
# [20] = Toxicity in cardiovascular rat model assessed as increase in histamine release in plasma at 3 mg/kg,iv for 20 mins followed by 10 mg/kg, iv dose for next 20 mins and measured after 20 mins of iv dose with 30 mg/kg; type: organism-based; settings: in vivo, 1 h, time 60 min
# [21] = Toxicity in dog assessed as emesis at 1 mg/kg; type: organism-based, Canis lupus familiaris; settings: in vivo
# [22] = Toxicity in cardiovascular rat model assessed as decrease in blood pressure at 3 mg/kg,iv for 20 mins followed by 10 mg/kg, iv dose for next 20 mins and measured after 20 mins of iv dose with 30 mg/kg; type: organism-based; settings: in vivo, 1 h, time 60 min
# [23] = Toxicity in rat assessed as anaphylaxis at 1 mg/kg, iv; type: organism-based; settings: in vivo
# [24] = Cmax in rat at 30 mg/kg, iv; type: ADME, organism-based; settings: in vivo
SMILES,MITC95 [1],IC50 [2],IC50 [4],MITC95 [5],Ratio [6],MITC95 [7],MITC95 [8],MITC95 [9],IC50 [10],other results
CS(=O)(=O)c1ccc(-c2ccc(C3CCNCC3)cc2)c(-c2nnn[nH]2)c1S(N)(=O)=O,3.13 µM,0.13 nM,0.1 nM,6.25 µM,8,0.78 µM,3.13 µM,3.13 µM,,IC50 [3]: 2.6 nM
Cc1ccc(-c2cccc(S(N)(=O)=O)c2-c2nnn[nH]2)cc1,127 µM,57 nM,64 nM,,,,14 µM,1.5 µM,3.7 nM,
NS(=O)(=O)c1cccc(-c2ccc(C3CCNCC3)cc2)c1-c1nn[nH]n1,38 µM,19 nM,34 nM,200 µM,128,1.56 µM,9 µM,3 µM,,
NS(=O)(=O)c1c(CC2CNC2)ccc(-c2ccc(C3CCNCC3)cc2)c1-c1nn[nH]n1,,,,,,,,,,Activity [11]: Toxic; Activity [12]: Toxic; Cmax [13]: 45 µM
NCCS(=O)(=O)c1ccc(-c2ccc(C3CCNCC3)cc2)c(-c2nn[nH]n2)c1S(N)(=O)=O,3.13 µM,0.2 nM,0.17 nM,,2,0.78 µM,1.56 µM,1.56 µM,,
NS(=O)(=O)c1c(C(F)(F)F)ccc(-c2ccc(C3CCNCC3)cc2)c1-c1nn[nH]n1,1.9 µM,0.3 nM,1.2 nM,50 µM,64,0.78 µM,0.2 µM,0.7 µM,0.9 nM,
NS(=O)(=O)c1c(CC2CCNCC2)ccc(-c2ccc(C3CCNCC3)cc2)c1-c1nn[nH]n1,2.3 µM,5 nM,24 nM,4.4 µM,6,0.8 µM,3.9 µM,2 µM,11 nM,Activity [14]: Toxic; Activity [15]: Toxic; IC50 [3]: 1230 nM; Activity [16]: Toxic; Activity [17]: Toxic; Activity [18]: Toxic; Activity [19]: Toxic; Activity [20]: Toxic; Activity [21]: Toxic; Activity [22]: Toxic; Activity [23]: Toxic; Cmax [24]: 459 µM
